The numbers were not newly measured in US20080070828A1, “Ace-Inhibitory Whey Hydrolysates” (FRIESLAND BRANDS B.V., priority 2004, published 2008), which cites them from elsewhere.

For series [1], the system named is hypertensive rats. Conditions: among 9 identified peptide sequences.
Series [2] relates to ACE. Conditions: for Literature IC50 / IC50: ACE-inhibitory peptides from BLG; for IC50: read-out: Literature IC50.

As usually defined, the IC50 is the point on the concentration scale where inhibition reaches its midpoint. Ile-Pro-Ala [f(78-80), BLG tripeptide]: the antihypertensive activity result in series [1] was “strongest antihypertensive activity”. In addition, in series [2], the “Literature IC50” value was 42 µg/mL and the IC50 is 141 µM.
For the substance “f(9-14): ACE-inhibitory peptide from BLG (GLDIQK; UniProt P02754 25-30, looked up, fragment)”, in series [2], the “Literature IC50” value is 390 µg/mL and the IC50 is 580 µM.
Take “f(15-20): ACE-inhibitory peptide from BLG (VAGTWY; UniProt P02754 31-36, looked up, fragment)”: in series [2], the “Literature IC50” value is 1170 µg/mL and the IC50 is 1680 µM.
Take “f(22-25): ACE-inhibitory peptide from BLG (LAMA; UniProt P02754 38-41, looked up, fragment)”: in series [2], the “Literature IC50” value is 430 µg/mL and the concentration for half-maximal inhibition (IC50) is 1060 µM.
For “f(32-40): ACE-inhibitory peptide from BLG (LDAQSAPLR; UniProt P02754 48-56, looked up, fragment)”, in series [2], the “Literature IC50” value was 616 µg/mL and the IC50 was 635 µM.
Turning to “f(81-83): ACE-inhibitory peptide from BLG (VFK; UniProt P02754 97-99, looked up, fragment)”, in series [2], the “Literature IC50” value is 404 µg/mL and the IC50 was 1030 µM.
Consider “f(94-100): ACE-inhibitory peptide from BLG (VLDTDYK; UniProt P02754 110-116, looked up, fragment)”, for which, in series [2], the “Literature IC50” value was 807 µg/mL and the IC50 is 946 µM.
Turning to “f(102-105): ACE-inhibitory peptide from BLG (YLLF; UniProt P02754 118-121, looked up, fragment)”, in series [2], the “Literature IC50” value is 95 µg/mL and the IC50 was 172 µM.
As for “f(106-111): ACE-inhibitory peptide from BLG (CMENSA; UniProt P02754 122-127, looked up, fragment)”, in series [2], the “Literature IC50” value is 515 µg/mL and the IC50 is 788 µM.
As for “f(142-146): ACE-inhibitory peptide from BLG (ALPMH; UniProt P02754 158-162, looked up, fragment)”, in series [2], the “Literature IC50” value was 296 µg/mL and the IC50 was 521 µM.
As for “f(142-148): peptide isolated from a trypsin hydrolysate of bovine BLG (ALPMHIR; UniProt P02754 158-164, looked up, fragment)”, the IC50 in series [2] was 43 µM. Also, the “IC50 reported in WO 01/85984” value in series [2] (single hydrolysis step with trypsin or bacterial protease, f142-148 as reference) was 40 µg/mL.
Consider “f(146-149): ACE-inhibitory peptide from BLG (HIRL; UniProt P02754 162-165, looked up, fragment)”, for which, in series [2], the “Literature IC50” value was 620 µg/mL and the IC50 was 1150 µM.
